Results: patent US8652536B2, “Skin clarifying complex, use of said complex, cosmestic or pharmaceutical composition comprising said complex and method for application thereof” (Natura Cosmeticos S.A., priority 2009, dated 2014)

What was measured:
Format in all cases: cell-based
line B16 melanocytes = experiment: cells; settings: for amount of melanin, % control: vs Control DMSO
Description: The assay methodology for the test lasted for five days in which, initially, line B16 melanocytes were plated on 12 well-conditioned containers, at a rate of 75,000 cells/plate.
On the three following days, 10mg (11 μl to linoleic acid) of component in the mixture were diluted in 100 μl of DMSO (dimethyl-sulfoxide) and, then, 9.9 ml of DMEM (culture medium) serum free were added so as to finally obtain 1 mg/ml of stock solution.
Sequentially, these solutions were incubated at 37° C. to assist solubilization of the samples. 10% bovine fetal serum (BFS) were added to the final dilution.
The actives are: gallic acid and linoleic acid.
On day five of the test the cells were divided into two steps of characterization: • Assessment of melanin in which the cells were first “washed” with PBS and then the cellular layer was dissolved into 500 μl of 3N NaOH and the suspension homogenized by pipetting. Two 200 μl portions of suspension were plated for optical reading at 400 nm.

[1] = system: culture medium corresponding to the epidermis; experiment: Melanin extracted from epidermis culture after 6 days of treatment; settings: 6 days treatment, kojic acid 250 μM, A 25 μg/ml, B 75 μg/ml, A + B 25 + 75 μg/ml; for melanin extracted from epidermis, Mean (%): % of control; for Reduction (%) of melanin extracted from epidermis: vs control
Description: In another example samples containing an extract of Brazilian […] extract (A), linoleic acid (B) and a mixture of the active ingredients linoleic acid and gallic acid (A+B), respectively, were compared to a control and to kojic acid as far as the reduction of the amount of melanin is concerned. Each sample was applied to a culture medium corresponding to the epidermis and the concentrations of melanin were measured after 6 days of treatment.

3T3 cells [2] = experiment: Cytotoxicity assay, Neutral Red, 24 hours incubation
3T3 cells [3] = experiment: Phototoxicity test, Neutral Red capture with and without UVA radiation; settings: with and without non-cytotoxic dose of UVA
Description: Cytotoxicity assay allows determining the cytotoxic concentration of an active, when 3T3 cells are incubated therewith for 24 hours. Toxicity is determined as a function of cell viability, monitored by incubation of 3T3 cells with Neutral Red, and essential dye incorporated by living cells 24 hours 24 hours after contacting the active. Such assessment uses methodologies established by the National Institute of Health (NIH), USA, acknowledged internationally (Guidance NIH, 2001). The phototoxicity test is based on a comparison of the toxicity of an active in the presence and absence of a non-cytotoxic dose of UVA radiation. Phototoxicity is measured by Neutral Red capture by those cells surviving incubation with the active, according to a protocol already established and standardized by COLIPA and OECD (ZEBET/ECVAM/COLIPA, 1998; OECD, 2004). Phototoxicity/photoirritation is defined as the toxic response caused after a first exposure of the skin to certain products/actives and the subsequent exposure to sun light or induced by an irradiation of the skin after systemic administration of an active/product.

Structure (SMILES)	melanin synthesis, % control (line B16 melanocytes; comparison with pharmaceutical and market actives at the same concentration, printed 0.01 mg/ml, α-MSH, FIG. 4) [% control]	melanin extracted from epidermis, Mean (%) [1] [%]	melanin extracted from epidermis, Mean [1] [µg/mL]	Reduction (%) of melanin extracted from epidermis [1] [%]	Reduction (%) of melanin extracted from epidermis ([1]; listed as kojic acid)	Reduction (%) of melanin extracted from epidermis ([1]; listed as B) [%]	Reduction (%) of melanin extracted from epidermis ([1]; listed as sample B) [%]	Cytotoxicity (3T3 cells [2])	Phototoxicity (3T3 cells [3])	inhibition at 25 µg/mL (line B16 melanocytes; Melanocyte, active alone at 0.025 mg/ml (its concentration in the mixture), read-out: inhibition of melanin by active alone) [%]	inhibition at 50 µg/mL (line B16 melanocytes; Melanocyte, active alone at 0.05 mg/ml (its concentration in the mixture), read-out: inhibition of melanin by active alone) [%]	inhibition at 75 µg/mL (line B16 melanocytes; Melanocyte, active alone at 0.075 mg/ml (its concentration in the mixture), read-out: inhibition of melanin by active alone) [%]	amount of melanin, % control (line B16 melanocytes; active alone at 0.025 mg/ml, α-MSH) [% control]	amount of melanin, % control (line B16 melanocytes; active alone at 0.05 mg/ml, α-MSH) [% control]	amount of melanin, % control (line B16 melanocytes; active alone at 0.075 mg/ml, α-MSH) [% control]
OC[C@H]1O[C@@H](Oc2ccc(O)cc2)[C@H](O)[C@@H](O)[C@@H]1O [Arbutin, reference compound]	82.5														
O=c1cc(CO)occ1O [Kojic acid, reference compound]		78.98	20.95	21.02	about 21.02%										
CCCCC/C=C\C/C=C\CCCCCCCC(=O)O [linoleic acid]		80.67	21.4			19.33	19.3	Not cytotoxic	Not phototoxic	8.1	15.9	19	91.9	84.1	81.0
